Reference: patent US20070122422A1, “Sodium-independent small neutral amino acid transporter transporting L- and D- amino acids” (Japan Science and Technology Corporation, priority 2000, published 2007)

Experiments:
Format in all cases: cell-based
[1] = biological target: T1, asc-1 of mouse (co-expressed with 4F2hc of mouse) (Mus musculus, UniProt P63115); assay: Inhibition of 14C-alanine incorporation by added amino acids and analogs in oocytes co-expressing asc-1 and 4F2hc; settings: 14C-alanine 50 μM; 5 mM non-labeled compound; Na+-free uptake solution
T1 construct: expressed in transfected cells; host or cells: Xenopus oocytes injected with cRNA
T1 sequence (P63115 1-530): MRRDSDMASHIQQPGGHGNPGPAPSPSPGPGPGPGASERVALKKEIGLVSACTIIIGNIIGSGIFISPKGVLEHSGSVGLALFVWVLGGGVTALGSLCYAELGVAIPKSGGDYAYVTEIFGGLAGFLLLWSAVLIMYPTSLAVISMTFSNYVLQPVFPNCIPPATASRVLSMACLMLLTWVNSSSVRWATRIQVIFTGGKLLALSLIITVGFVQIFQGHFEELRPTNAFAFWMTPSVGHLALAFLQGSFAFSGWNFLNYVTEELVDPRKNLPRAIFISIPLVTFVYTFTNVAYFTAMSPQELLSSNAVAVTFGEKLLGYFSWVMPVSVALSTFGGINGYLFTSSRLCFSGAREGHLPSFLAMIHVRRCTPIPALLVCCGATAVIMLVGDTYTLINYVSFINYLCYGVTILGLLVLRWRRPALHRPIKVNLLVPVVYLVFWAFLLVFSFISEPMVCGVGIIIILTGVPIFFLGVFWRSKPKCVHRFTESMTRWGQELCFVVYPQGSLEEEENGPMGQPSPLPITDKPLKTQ
T1 sequence (P10852 1-526 partner): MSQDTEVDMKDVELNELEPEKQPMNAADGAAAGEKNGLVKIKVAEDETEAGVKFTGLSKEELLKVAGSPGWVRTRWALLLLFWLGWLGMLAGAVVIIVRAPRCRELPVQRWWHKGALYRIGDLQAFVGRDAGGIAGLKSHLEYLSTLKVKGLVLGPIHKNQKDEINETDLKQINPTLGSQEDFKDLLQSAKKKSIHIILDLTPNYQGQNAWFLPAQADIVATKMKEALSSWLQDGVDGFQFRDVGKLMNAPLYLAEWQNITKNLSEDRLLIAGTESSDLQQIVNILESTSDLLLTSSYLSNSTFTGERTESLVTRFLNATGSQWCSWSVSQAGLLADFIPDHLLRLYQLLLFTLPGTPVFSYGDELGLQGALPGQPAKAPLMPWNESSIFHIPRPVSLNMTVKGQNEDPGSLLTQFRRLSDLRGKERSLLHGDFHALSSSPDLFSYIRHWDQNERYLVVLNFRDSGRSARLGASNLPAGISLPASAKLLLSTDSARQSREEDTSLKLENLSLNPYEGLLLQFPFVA
Procedure: (§1) Into oocytes were injected 12 ng of asc-1 gene cRNA of mouse, 13 ng of 4F2hc gene cRNA of mouse or 12 ng asc-1 gene cRNA of mouse/13 ng of 4F2hc gene cRNA of mouse to express followed by incubating for 3 days. […] Thus, the oocytes were allowed to stand for 30 minutes in a Na^+-free uptake solution [100 mM choline chloride, 2 mM potassium chloride, 1.8 mM calcium chloride, 1 mM magnesium chloride, 5 mM HEPES; pH 7.4] containing ^14C-alanine (100 μM) as a substrate and the rate of the substrate incorporated into the cells was measured by way of counting the radioactivity incorporated thereinto.
In an experiment of incorporation of alanine by oocytes into which both asc-1 gene cRNA of mouse and 4F2hc gene cRNA of mouse were injected, influence of addition of various amino acid and analogs thereof was investigated.
In an experiment of incorporation of alanine, a method according to that mentioned in the above Example 2(1) was carried out using oocytes into which both asc-1 gene cRNA of mouse and 4F2hc gene cRNA of mouse were injected. Here, a Na^+-free uptake solution was used and incorporation of ^14C-alanine (50 μM) was measured in the presence and absence of 5 mM of various compounds (non-labeled).

[2] = biological target: T1, asc-1 of mouse (co-expressed with 4F2hc of mouse); assay: Incorporation of radiolabeled amino acids and analogs by oocytes co-expressing asc-1 and 4F2hc; settings: for incorporation into the oocytes as substrate: radiolabeled substrate, oocytes expressing both asc-1 and 4F2hc, Na+-free uptake solution; for transport by asc-1 (affinity in words): summary statement, asc-1 co-existing with 4F2hc
Procedure: Incorporation of alanine when asc-1 gene cRNA of mouse was solely expressed in oocytes of Xenopus and when asc-1 gene cRNA of mouse and 4F2hc gene cRNA of mouse were expressed in oocytes of Xenopus together was compared.
as §1
In an experiment of incorporation of alanine by oocytes into which both asc-1 gene cRNA and 4F2hc gene cRNA of mouse were injected together, influence of the salt added to the medium was investigated.
The experiment of incorporation of alanine was carried out in accordance with the method mentioned in the above Example 2(1) using oocytes into which both asc-1 gene cRNA and 4F2hc gene cRNA of mouse were injected together. When the influence of sodium ion was checked however, a standard uptake solution (where 100 mM choline chloride was substituted with 100 mM sodium chloride) was used in place of the Na^+-free uptake solution as the uptake solution. When the influence of chlorine ion was checked, a gluconic acid uptake solution (where 100 mM sodium chloride was substituted with 100 mM sodium gluconate) was used in place of the standard uptake solution.
Incorporation by asc-1 was investigated using various amino acids and analogs thereof as substrates. Experiment for incorporation of various amino acids and analogs thereof was carried out according to the method mentioned in the above Example 2(1) using oocytes into which asc-1 gene cRNA of mouse and 4F2hc gene cRNA of mouse were injected together. With regard to the substrates however, various compounds labeled with radioactivity were used in place of ^14C-alanine.
Influence of pH was checked in an experiment for incorporation of alanine by oocytes into which both asc-1 gene cRNA and 4F2hc gene cRNA of mouse were injected together. With regard to an experiment for incorporation of alanine, the method according to that mentioned in the above Example 2 (1) was carried out using oocytes into which both asc-1 gene cRNA of mouse and 4F2hc gene cRNA of mouse were injected together.

[3] = biological target: T1, asc-1 of mouse (co-expressed with 4F2hc of mouse); assay: Michaelis-Menten kinetic test of substrate incorporation by Xenopus oocytes co-expressing asc-1 and 4F2hc; settings: ratio to the Vmax value for alanine (defined as 1.00)
Procedure: as §1
A Michaelis-Menten kinetic test was carried out for a sodium-independent small neutral amino acid transporter asc-1 which transports L- and D-amino acids. By checking the changes in the rate of incorporation of alanine due to the difference in concentration of the alanine substrate, the Michaelis-Menten kinetic test of asc-1 was carried out.
An experiment for the incorporation of alanine was carried out according to the method mentioned in the above Example 2(1) using the oocytes into which both asc-1 gene cRNA of mouse and 4F2hc gene cRNA of mouse were injected.
With regard to amino acids other than alanine which were used as substrates, a Michaelis-Menten kinetic was carried out as well in the same manner whereupon Km values and Vmax values were calculated. Each Vmax value in Table 1 was shown in terms of the ratio when the Vmax value of alanine was defined as 1.00.

SMILES	inhibition of incorporation of 14C-alanine mediated by asc-1 [1]	influence of pH on incorporation of alanine [2]	influence of salt on incorporation of alanine ([2]; choline changed to sodium, chlorine ion changed to gluconic acid ion)	incorporation into the oocytes as substrate [2]	transport by asc-1 (affinity in words) [2]	Vmax [3]
C[C@H](N)C(=O)O [L-Alanine]	particularly strongly inhibited	no significant dependency on pH	does no affect	big incorporation	highly affinitive	(1.00)
N[C@@H](CO)C(=O)O [L-Serine]	particularly strongly inhibited	–	–	big incorporation	highly affinitive	1.02
